Reference: patent publication US12605350B2, “Composition for preventing, ameliorating, or treating disease caused by nitration of tyrosine in proteins comprising tyrosine as effective component” (INDUSTRY-ACADEMIC COOPERATION FOUNDATION GYEONGSANG …, priority 2020, dated 2026)

Target: T1, human recombinant MnSOD (Homo sapiens, UniProt P04179)
T1 sequence (P04179 25-222): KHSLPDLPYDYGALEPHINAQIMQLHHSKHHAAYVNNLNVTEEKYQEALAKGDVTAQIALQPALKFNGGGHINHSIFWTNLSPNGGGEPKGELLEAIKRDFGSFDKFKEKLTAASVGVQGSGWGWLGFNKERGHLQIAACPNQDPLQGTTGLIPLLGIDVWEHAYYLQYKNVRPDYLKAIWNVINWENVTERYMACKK
Assay: SOD activity of human recombinant MnSOD treated with peroxynitrite
Format: biochemical
Details: human recombinant MnSOD with peroxynitrite (2.1 mM PN), 10 minutes on ice
Method: Peroxynitrite was diluted by 40 times with 0.3 M NaOH, and absorbance at 302 nm was measured. Then, it was quantified by using the molar absorption coefficient of peroxynitrite) (ε302=1670 M^−1 cm^−1).
For the measurement of SOD activity, SOD colorimetric activity kit by ThermoFisher was used. Human recombinant MnSOD within reference SOD range, peptide, and peroxynitrite were admixed with one another, and the reaction was allowed to occur on ice for 10 minutes. To a 96-well plate, 10 μl of reference SOD or the reaction mixture, and 50 μl of a substrate solution provided in the kit were added, and the absorbance at 450 nm was measured. After adding 25μl of xanthine oxidase provided in the kit and allowing the reaction to occur for 20 minutes at room temperature, absorbance at 450 nm was measured. By using the data obtained by subtracting the first-measured absorbance from the second-measured absorbance, SOD activity was obtained.

MnSOD (SOD) activity: higher MnSOD activity
SMILES: N[C@H](Cc1ccc(O)cc1)C(=O)O [D-tyrosine]
